Test results from patent publication US8247352B2, “Method of inhibiting ethylene production in plants” (The Regents of the University of California, priority 2005, dated 2012).
Several values for one entry are separate records, joined by “and”; a condition that tells them apart may be missing. Identical values can stand only once.

Tests used:
ACC Oxidase = biological target: T1, ACC Oxidase (Solanum lycopersicum, UniProt P05116); assay: Stoichiometry of O2 consumed to product formed (CO2 or ethylene), extent of uncoupling; format: biochemical, Lycopersicon esculentum; details: for Ratio O2 consumed to product formed, O2:CO2 / Ratio O2 consumed to product formed, O2:ethylene: saturating substrate, 30 mM ascorbate, ambient O2; for Ratio O2 consumed to product formed, O2:CO2: [14C]-CO2 trapping; for Ratio O2 consumed to product formed, O2:ethylene: ethylene by GC-FID
T1 construct: made in house; host or cells: Escherichia coli BL21 (DE3)pLysS
T1 sequence (P05116 whole entry): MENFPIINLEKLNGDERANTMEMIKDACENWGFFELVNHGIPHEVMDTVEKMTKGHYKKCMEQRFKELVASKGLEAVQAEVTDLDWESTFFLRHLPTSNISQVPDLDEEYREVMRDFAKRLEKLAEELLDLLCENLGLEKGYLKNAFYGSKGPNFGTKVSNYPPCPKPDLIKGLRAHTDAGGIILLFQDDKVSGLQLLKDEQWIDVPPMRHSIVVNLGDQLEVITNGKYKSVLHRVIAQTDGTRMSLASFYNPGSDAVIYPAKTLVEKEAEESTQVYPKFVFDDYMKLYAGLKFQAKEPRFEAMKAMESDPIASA
Description: Oxygen consumption was measured using a YSI model 5300 biological oxygen monitor as described above. Reactions contained D-[1-^14C]-Ala, [carboxyl-^14C]-ACC, α-[1-^14C]-AIB, or [1-^14C]-Gly in trace amounts. […] Reactions (1 mL) were initiated with a pre-incubated mixture of ACCO:Fe(II) in a 2:1 ratio. This was done to minimize free Fe(II) in solution. Final concentrations were typically 10 μM ACCO and 5 μM Fe(II). Reactions were quenched by addition of 3 μL of 0.1 M 3-[2-Pyridyl]-5,6-diphenyl-1,2,4-triazine-4,4′-disulfonic acid (FERROZINE®) and the O2 consumption rate was allowed to stabilize. The reaction (0.8 mL) was removed with a gas-tight syringe and injected into a small vial containing 0.1 mL 10% HCl that was inside a larger vial containing the CO2 trap (see above). The acidified reaction mixture and the CO2 trap were stirred for 2 h, and radioactivity from [^14C]—CO2 was determined as described above. Controls measuring the efficiency of the CO2 trap were done by injecting a known amount of [^14C]—NaHCO3 into the vial containing acid, as above, and measuring the amount of [^14C]—CO2 recovered. Efficiency of trapping was routinely ˜98%.
O2 consumption was measured using an Ocean Optics FOXY fiber optic oxygen sensor, with the fiber optic probe inserted through a syringe into an airtight septum, thus preventing ethylene escape. […] ACCO:Fe(II) (final concentrations 10 μM ACCO and 5 μM Fe(II)) was injected by syringe into a ½ dram vial covered with a septum with no headspace. The reaction was quenched as described above. A 10 mL syringe filled with air was used to transfer the reaction mixture to a 10 mL test tube covered with a septum using a cannula. The test tube was stirred vigorously for at least 4 hours before ethylene analysis. Ethylene was measured by injecting 2 mL of the headspace onto a GC equipped with a RT-Alumina GC column (final sample size was 250 μL). Ethylene was separated using ultrapure helium (grade 5) as the carrier gas at 40° C. detected by flame ionization (FID). The data were collected and the peak area was determined. Calibration for ethylene was done with Scotty IV mix 3 hydrocarbon standard (Scotty Specialty Gases). The ppm of ethylene was converted to nanomoles of ethylene per unit volume using the ideal gas law. Dilution of ethylene during sampling was taken into account in the calculations.
The extent of uncoupling for ACCO with both cyclic and acyclic substrate analogs was determined by comparing the amount of O2 consumed and product, either ethylene or CO2, formed. All reactions were carried out at saturating substrate and ascorbate concentrations to minimize potential O2 reaction in the absence of substrate. […] O2 measurements were quenched during or just as the linear phase of the reaction began to fall off due to either loss of Fe(II) from the enzyme or possible enzyme inactivation. The results distinguish between amounts of uncoupling.
For cyclic substrate analogs and ACC, the stoichiometry was determined by comparing O2 consumption with ethylene formation by GC-FID. […] The stoichiometry of O2 consumed to ethylene produced for ACC was 1.44 and to CO2 produced was 1.18, which is identical to that reported by Dong, et. al (Dong et al., 1992).

ACC Oxidase (ACCO, ACO1) = biological target: T2, ACC Oxidase (ACCO, ACO1) (Solanum lycopersicum, UniProt P05116); assay: Initial velocity assays (rate of oxygen consumption) with ACC or substrate analogs; format: biochemical, Lycopersicon esculentum; details: for Km compared to ACC (in words) / Km increased by factor compared with ACC / Rate of O2 consumption by ACCO compared with ACC (in words): from Table 1; for Km / Vmax: O2 consumption, 25° C., pH 7.2, [Ascorbate] = 30 mM, [O2] = 258 μM, [CO2/bicarbonate] = 20 mM
T2 construct: made in house; host or cells: Escherichia coli BL21 (DE3)pLysS
T2 sequence (P05116 whole entry): as above
Description: ACCO from Lycopersicon esculentum (ACO1) was produced in Escherichia coli strain BL21 (DE3)pLysS and purified by a two-column purification procedure as previously described (Thrower, J. S. et al., 2001).
Initial velocities were measured by the rate of oxygen consumption at 25° C., pH 7.2, using a YSI model 5300 biological oxygen monitor as previously described (Thrower 2001) with minor modifications. Standard reaction mixture (1 ml) contained 100 mM MOPS, pH 7.2, 20 mM NaHCO3, 100 mM NaCl, 20 mM sodium ascorbate, 0.1 mg/ml BSA, and ACC or substrate analog at various concentrations. Oxygen concentrations were kept at atmospheric concentration and determined using the oxygen monitor that was calibrated with air saturated water (258 μM oxygen at 25° C.). Reactions were initiated with 2 μL ACCO reconstituted with equimolar Fe(NH4)2(SO4)2. Data from initial velocity experiments with varying substrate concentrations were fitted to the Michaelis-Menton equation using the program Kalideograph.
Either cyclic substrate analogs (including inhibitor Me-ACC, ACC-NH2, or ACC-OMe) or acyclic substrate analogs (AIB, D-Ala, or Gly) were used. […] Ascorbate and oxygen concentrations were kept constant at 30 mM and ˜258 μM, respectively.

ACCO:Fe(II) = biological target: T3, ACCO:Fe(II) (Solanum lycopersicum, UniProt P05116); assay: Ethylene trapping assay: substrate turnover by ACCO:Fe(II), ethylene trapped as dibromoethane, GC-MS; format: biochemical, Lycopersicon esculentum; details: for Amount of ethylene formed during the reaction time relative to reaction with ACC: 1 hr incubation with ACCO:Fe(II); for Ethylene produced relative to predicted ethylene during the reaction time course: prediction from kcat
T3 construct: made in house; host or cells: Escherichia coli BL21 (DE3)pLysS
T3 sequence (P05116 whole entry): as above
Description: For detection of CO2, trace radiolabeled compound was used as appropriate. A small vial containing the reaction mixture minus enzyme was placed along side of another small vial containing the ethylene or CO2 trap. Both vials were placed in a large vial, which was capped with a septum. ACCO:Fe(II) was introduced into the reaction vial with a syringe and both the reaction vial and trap vial were stirred for 1 h. For [^14C]—CO2 trapping, a 1 mL solution of freshly prepared 10 M NaOH was used as the trapping agent. At the end of the reaction, the trap was removed and added to 15 mL scintillation fluid (Hionic-Fluor, Perkin Elmer) and radioactivity determined by scintillation counting. For ethylene, a […] solution of Br2 in CCl4 was used as the trap. A small amount of 2,5-dibromohexane was added to the trap as an internal standard. At the completion of the reaction, a small excess of 2,3-dimethyl-2-butene was added to the trap to quench unreacted Br2, and the trap was analyzed by GC-MS. Dibromoethane purchased from Aldrich was used as a standard.
The ability of ACCO to turnover ACC or the cyclic substrate analogs (MeACC, ACC-NH2, or ACC-OMe) was determined by the formation of ethylene. Each substrate analog or ACC was incubated for 1 hr with ACCO:Fe(II) in a closed reaction vial containing an ethylene trap that would convert ethylene to dibromoethane. At the end of the reaction time, the ethylene trap was quenched and analyzed for dibromoethane by GC-MS. Reactions with BSA/Fe(II) were used as a control for non-enzymatic ethylene formation. The formation of ethylene was detected in the reaction vials of ACC and all the cyclic analogs in the presence of ACCO:Fe(II). No ethylene was detected in any of the BSA/Fe(II) reactions. The amount of ethylene formed during the reaction time from the cyclic analogs was lower than that from the reaction with ACC (MeACC=14%, ACCNH2=13%, ACC-OMe=79%). If the rates of O2 consumption for the reactions with the different substrates are considered, the kcat for ACC-OMe is approximately 75% of that for ACC, which would be consistent with the amount of ethylene produced during the time course of the reaction. […] Although the purity of both MeACC and ACCNH2 by elemental analysis was determined >95%, it is possible that a small amount of contaminating ACC could be responsible for the ethylene formed in these reactions. To determine whether ethylene was being formed from the substrate analog and not from contaminating ACC, reactions with each analog were done in the presence of increasing concentration of ACCO:Fe(II). In the case of a small amount of contamination where the ACC would be quickly depleted during the reaction, the result would be a non-linear dependence of ethylene production with increasing ACCO concentration.

ACCO = biological target: T4, ACCO (Solanum lycopersicum, UniProt P05116); assay: Labeling of ACCO by radiolabeled N-Me-ACC (centrifugal filtration, scintillation counting); format: binding, Lycopersicon esculentum; details: approximately equal concentrations, standard reaction conditions, quenched with Ferrozine
T4 construct: made in house; host or cells: Escherichia coli BL21 (DE3)pLysS
T4 sequence (P05116 whole entry): as above
Description: Radiolabeled N-Me-ACC was incubated with ACCO (approximately equal concentrations) in standard reaction conditions. The reaction was quenched using Ferrozine. The solution was placed in a Millipore 10K NMWL Ultrafree®-MC Centrifugal Filter Unit and centrifuged for 15 min. at 14K rpm. The remaining protein (˜20 μL) was washed with 3×1 mL of either water, reaction buffer, or 0.1% TFA by repeated centrifugation. The protein was collected and radioactivity determined by scintillation counting in 12 mL EcoLite^+ scintillation fluid.

Compound: NC1(C(=O)O)CC1 [ACC, 1-aminocyclopropane-1-carboxylic acid, reference compound]
- Products detected (ACC Oxidase): Ethylene, CO2
- Ratio O2 consumed to product formed, O2:CO2 (ACC Oxidase): 1.18 and 1.2 and 1.18 ± 0.17
- Ratio O2 consumed to product formed, O2:ethylene (ACC Oxidase): 1.44 and 1.44 ± 0.22

Compound: NC(=O)C1(N)CC1 [ACC-NH2]
- Km compared to ACC (in words) (ACC Oxidase (ACCO, ACO1)): not significantly altered
- kcat slower than the kcat for ACC (ACC Oxidase (ACCO, ACO1); from rates of O2 consumption): ~30%
- Products detected (ACC Oxidase): Ethylene
- Ratio O2 consumed to product formed, O2:ethylene (ACC Oxidase): 4.40 ± 1.56
- Amount of ethylene formed during the reaction time relative to reaction with ACC (ACCO:Fe(II)): 13%
- Ethylene produced relative to predicted ethylene during the reaction time course (ACCO:Fe(II)): about half the predicted ethylene

Compound: COC(=O)C1(N)CC1 [ACC-OMe]
- Km (ACC Oxidase (ACCO, ACO1)): 2760 ± 550 µM
- Vmax (ACC Oxidase (ACCO, ACO1)): 27.3 ± 1.7 min⁻¹
- Km increased by factor compared with ACC (ACC Oxidase (ACCO, ACO1)): ~28 fold
- kcat as percent of that for ACC (ACC Oxidase (ACCO, ACO1); from rates of O2 consumption): approximately 75%
- Products detected (ACC Oxidase): Ethylene
- Ratio O2 consumed to product formed, O2:ethylene (ACC Oxidase): 1.81 ± 0.72
- Amount of ethylene formed during the reaction time relative to reaction with ACC (ACCO:Fe(II)): 79%

Compound: CC(C)(N)C(=O)O [AIB, α-aminoisobutyric acid]
- Km increased by factor compared with ACC (ACC Oxidase (ACCO, ACO1)): 9.3 fold
- Rate of O2 consumption by ACCO compared with ACC (in words) (ACC Oxidase (ACCO, ACO1)): comparable
- Products detected (ACC Oxidase): Acetone, CO2
- Ratio O2 consumed to product formed, O2:CO2 (ACC Oxidase): 1.7 and 1.68 ± 0.12

Compound: C[C@@H](N)C(=O)O [D-Alanine, D-alanine]
- Km increased by factor compared with ACC (ACC Oxidase (ACCO, ACO1)): 44.7 fold
- Rate of O2 consumption by ACCO compared with ACC (in words) (ACC Oxidase (ACCO, ACO1)): comparable
- Products detected (ACC Oxidase): Acetaldehyde, CO2
- Ratio O2 consumed to product formed, O2:CO2 (ACC Oxidase): 3.46 ± 0.51

Compound: NCC(=O)O [Glycine, glycine]
- Products detected (ACC Oxidase): CO2

Compound: CNC1(C(=O)O)CC1 [N-Me-ACC]
- Km (ACC Oxidase (ACCO, ACO1)): 107 ± 21 µM
- Vmax (ACC Oxidase (ACCO, ACO1)): 12.2 ± 0.5 min⁻¹
- Km compared to ACC (in words) (ACC Oxidase (ACCO, ACO1)): not significantly altered
- kcat slower than the kcat for ACC (ACC Oxidase (ACCO, ACO1); from rates of O2 consumption): ~30%
- Labeling of ACCO by radiolabeled compound (ACCO): irreversibly labels ACCO in a short period of time
- Products detected (ACC Oxidase): Ethylene
- Ratio O2 consumed to product formed, O2:ethylene (ACC Oxidase): 3.17 ± 0.86
- Amount of ethylene formed during the reaction time relative to reaction with ACC (ACCO:Fe(II)): 14%
- Ethylene produced relative to predicted ethylene during the reaction time course (ACCO:Fe(II)): about half the predicted ethylene
